Results from patent US12569497B2, “Use of HCN inhibitors for treatment of cancer” (The University of Hong Kong, priority 2017, dated 2026).
Structures can show the parent of a compound that is named as a salt.

Tests used:
[1] = cited from earlier work
[2] = test system: MDA-MB-453 breast cancer cells; assay: apoptosis by flow cytometry (APO-BrdU TUNEL), MDA-MB-453; format: cell-based; settings: 200 μM, 72 hours
Method: (§1) Cells were seeded in 10 cm dish. When the confluence of cells reached 80%, the cells were treated with 200 μM of Ivabradine or double distilled water for 72 hours. The cells were washed with 10 mL of 1×PBS. The cells were detached from the dish by treating the cells with 1 mL of Trypsin (Gibco). The cell suspension was transferred to 15 mL centrifuge tube and subjected to centrifugation at 300×g for 5 minutes at room temperature. The cell pellet was kept. The cell pellet was washed with 5 mL of 1×PBS. The cell suspension was centrifuged at 300×g for 5 minutes at room temperature. The cell pellet was resuspended in 5 mL of 4% paraformaldehyde in PBS and place on ice for 15 minutes. The cell suspension was centrifuged at 300×g for 5 minutes. The cell pellet was washed with 5 mL of 1×PBS. After the washing, the cell suspension was centrifuged at 300×g for 5 minutes at room temperature. The cell pellet was resuspended in 0.5 mL of 1×PBS. The cell suspension was added to 5 mL of ice-cold 70% ethanol for 30 minutes. APO-BrdU TUNEL Assay Kit (ThermoFisher, Cat: A23210) was used. For each cell pellet, DNA labelling solution was prepared by mixing 10 μL of reaction buffer, 0.75 μL of TdT enzyme, 8 μL of BrdUTP and 31.25 μL of double distilled water. The cell pellet was resuspended in 50 μL of the DNA-labeling solution. […] The cells were analysed by BD LSR Fortessa Analyzer.

[3] = test system: cancer cell line Ishikawa; assay: MTT proliferation assay, Ishikawa; format: cell-based; settings: 200 μM, 7 days, vs double distilled water
Method: (§2) Ivabradine was purchased (Sigma). The powder was dissolved into double-distilled water.
(§3) MCF10A, MCF7, ZR75-1, BT474, MDA-MB-231, MDA-MB-453, Ishikawa, SW1116, PLC/PRF/5, MHCC-97L and Huh7 cells were seeded in 96-well plate with cell density 5000 cells per well. 200 μM of Ivabradine was used for cell treatment while double distilled water was used as control. […] MTT solution was prepared at 5 mg/mL in PBS and was filtered through a 0.2 μm filter. Then, 50 μl of MTT plus 200 μl of culture medium were added into each well. Cells were incubated for 4 hours at 37° C. with 5% CO2, 95% air and complete humidity. After 4 hours, the medium with MTT solution was removed and replaced with 200 μl of isopropanol with 4 mmol/L HCl and 0.1% NP-40. The 96-well plate was further incubated for 5 min at room temperature. The optical density of the wells was determined using a plate reader at a test wavelength of 570 nm and a reference wavelength of 630 nm.

[4] = test system: liver cancer cell line Huh7; assay: MTT proliferation assay, Huh7; format: cell-based; settings: 200 μM, 5 days, vs double distilled water
Method: as §2, §3

[5] = test system: breast cancer cells (MCF7, MDA-MB-231, MDA-MB-453, and BT-474); assay: clonogenic assay, breast cancer cells; format: cell-based; settings: 200 μM, 2 weeks
Method: (§4) For the clonogenic assay, 2000 cells were seeded in 6-well plate. 200 μM of Ivabradine was used to treat the cells while double distilled water was used as negative control. The cells were treated for 14 days. The cells were washed with 1 mL of 1×PBS and then fixed by incubating with 4% paraformaldehyde in PBS for 15 minutes at room temperature. The cells were washed with 1 mL of 1×PBS. The cell colonies were visualized by staining with 0.5% crystal violet (Sigma) solution for 1 hour at room temperature. The cells were washed with tap water. The number of cells equal or greater than 50 cells would be regarded as one colony. Number of colonies was counted. After the counting, stain was extracted by incubating with 500 μL of 10% acetic acid solution. The optical density at 650 nm was measured.

[6] = test system: BT-474 breast cancer cells; assay: apoptosis by flow cytometry (APO-BrdU TUNEL), BT-474; format: cell-based; settings: 200 μM, 24 hours
Method: as §1, with “When the confluence of cells reached 80%, the cells were treated with 200 μM of Ivabradine or double distilled water for 72 hours.” left out, “solution. The cell suspension was incubated at 37° C. for 1 hour.” for “solution.”

MDA-MB-231 xenografts = assay: tumor xenograft growth in nude mice, MDA-MB-231; format: in vivo, female nude mice; settings: MDA-MB-231 xenograft, 15 mg kg^−1 day^−1 IP, 15 days
Method: (§5) The effects of Ivabradine suppression on triple negative breast cancer was investigated in a female nude mouse model with MDA-MB-231 and MDA-MB-453 cells. The cell lines mixed with Matrigel (BD Biosciences) at the ratio of 1:1 were inoculated into the abdominal mammary fat pad of the 5 to 6 week old female nude mice. When the tumors were palpable, the mice were randomized into two groups, each consisting of eight animals. Each group was treated with Ivabradine (15 mg/kg day-1) or water. All reagents were administered via intraperitoneal delivery. Tumor sizes were measured by caliper and tumor volume was calculated as (length*width*width)/2. This protocol has been reviewed and approved by Committee on the Use of Live Animals in Teaching and Research (CULATR), the University of Hong Kong.
(§6) Tumor growth was compared between treatment and control groups (P<0.001). After 15 days (MDA-MB-231) or 18 days (MDA-MB-453) of the treatment, tumors were isolated and recorded by photo.

[7] = test system: MDA-MB-231 breast cancer cells; assay: apoptosis by flow cytometry (APO-BrdU TUNEL), MDA-MB-231; format: cell-based; settings: 200 μM, 72 hours
Method: as §1

[8] = test system: liver cancer cells PLC/PRF/5; assay: clonogenic assay, PLC/PRF/5; format: cell-based; settings: 200 μM, 2 weeks
Method: as §4

[9] = test system: TNBC cell line MDA-MB-231; assay: MTT proliferation assay, MDA-MB-231; format: cell-based; settings: 200 μM, 5 days, vs double distilled water
Method: as §2, §3

[10] = test system: MDA-MB-453 breast cancer cells; assay: cell cycle flow cytometry (propidium iodide), MDA-MB-453; format: cell-based; settings: 200 μM, 72 hours
Method: as §1, with “Analyzer. […]” for “Analyzer.”

[11] = test system: MDA-MB-231 breast cancer cells; assay: cell cycle flow cytometry (propidium iodide), MDA-MB-231; format: cell-based; settings: 200 μM, 72 hours
[12] = test system: BT-474 breast cancer cells; assay: cell cycle flow cytometry (propidium iodide), BT-474; format: cell-based; settings: 200 μM, 24 hours
MDA-MB-453 xenografts = assay: tumor xenograft growth in nude mice, MDA-MB-453; format: in vivo, female nude mice; settings: MDA-MB-453 xenograft, 15 mg kg^−1 day^−1 IP, 18 days
Method: as §5, §6

[13] = test system: colon cancer cells (SW1116); assay: clonogenic assay, SW1116; format: cell-based; settings: 200 μM, 2 weeks
Method: as §4

[14] = test system: TNBC cell line MDA-MB-453; assay: MTT proliferation assay, MDA-MB-453; format: cell-based; settings: 200 μM, 5 days, vs double distilled water
Method: as §2, §3

[15] = test system: liver cancer cells MHCC-97L; assay: clonogenic assay, MHCC-97L; format: cell-based; settings: 200 μM, 2 weeks
Method: as §4

(Ishikawa) = assay: clonogenic assay, Ishikawa; format: cell-based; settings: 200 μM, 2 weeks
Method: as §4

[16] = test system: breast cancer cell line MCF7; assay: MTT proliferation assay, MCF7; format: cell-based; settings: 200 μM, 5 days, vs double distilled water
Method: as §2, §3

[17] = test system: breast cancer cell line BT474; assay: MTT proliferation assay, BT474; format: cell-based; settings: 200 μM, 5 days, vs double distilled water
Method: as §2, §3

[18] = test system: colon cancer cell line SW1116; assay: MTT proliferation assay, SW1116; format: cell-based; settings: 200 μM, 3 days, vs double distilled water
Method: as §2
MCF10A, MCF7, ZR75-1, BT474, MDA-MB-231, MDA-MB-453, Ishikawa, SW1116, PLC/PRF/5, MHCC-97L and Huh7 cells were seeded in 96-well plate with cell density 5000 cells per well. 200 μM of Ivabradine was used for cell treatment while double distilled water was used as control. 3-(4,5-dimethyl-2-thiazolyl)-2,5-diphenyl-2H-tetrazolium bromide (MTT) assay was performed 24, 48, 72 and 96 hours after Ivabradine treatment. MTT solution was prepared at 5 mg/mL in PBS and was filtered through a 0.2 μm filter. Then, 50 μl of MTT plus 200 μl of culture medium were added into each well. Cells were incubated for 4 hours at 37° C. with 5% CO2, 95% air and complete humidity. After 4 hours, the medium with MTT solution was removed and replaced with 200 μl of isopropanol with 4 mmol/L HCl and 0.1% NP-40. The 96-well plate was further incubated for 5 min at room temperature. The optical density of the wells was determined using a plate reader at a test wavelength of 570 nm and a reference wavelength of 630 nm.

[19] = test system: liver cancer cell line PLC/PRF/5; assay: MTT proliferation assay, PLC/PRF/5; format: cell-based; settings: 200 μM, 5 days, vs double distilled water
Method: as §2, §3

[20] = test system: liver cancer cell line MHCC-97L; assay: MTT proliferation assay, MHCC-97L; format: cell-based; settings: 200 μM, 5 days, vs double distilled water
Method: as §2, §3

SMILES: COc1cc2c(cc1OC)CC(=O)N(CCCN(C)C[C@H]1Cc3cc(OC)c(OC)cc31)CC2 [Ivabradine hydrochloride salt]
- solubility in water [1]: over 5 mg/ml

SMILES: COc1cc2c(cc1OC)CC(=O)N(CCCN(C)C[C@H]1Cc3cc(OC)c(OC)cc31)CC2 [Ivabradine, 1.7,8-dimethoxy-3-(3-(((4,5-dimethoxybenzocyclobutan-1-yl)methyl)methylamino)propyl)-1,3,4,5-tetrahydro-2H-benzazepin-2-one]
- apoptosis [2]: significantly induces apoptosis
- proliferation (MTT) [3]: significantly reduced the proliferation
- proliferation (MTT) [4]: significantly reduced the proliferation
- solubility in water [1]: about 0.02 mg/ml
- colony formation and proliferation (clonogenic assay) [5]: suppression of breast cancer colony formation and proliferation
- apoptosis [6]: significantly induces apoptosis
- tumor growth (MDA-MB-231 xenografts): significantly suppress tumor growth
- apoptosis [7]: significantly induces apoptosis
- colony formation and proliferation (clonogenic assay) [8]: suppression of liver cancer colony formation and proliferation
- proliferation (MTT) [9]: significantly reduced the proliferation
- cell cycle arrest [10]: induced sub-G1 cell cycle arrest
- cell cycle arrest [11]: induced sub-G1 cell cycle arrest
- cell cycle arrest [12]: induced sub-G1 cell cycle arrest
- tumor growth (MDA-MB-453 xenografts): significantly suppress tumor growth
- colony formation and proliferation (clonogenic assay) [13]: suppression of colon cancer colony formation and proliferation
- proliferation (MTT) [14]: significantly reduced the proliferation
- colony formation and proliferation (clonogenic assay) [15]: suppression of liver cancer colony formation and proliferation
- colony formation and proliferation (clonogenic assay) ((Ishikawa)): suppression of ovarian cancer colony formation and proliferation
- proliferation (MTT) [16]: significantly reduced the proliferation
- proliferation (MTT) [17]: significantly reduced the proliferation
- proliferation (MTT) [18]: significantly reduced the proliferation
- proliferation (MTT) [19]: significantly reduced the proliferation
- proliferation (MTT) [20]: significantly reduced the proliferation
